Consider one molecule from publication PMC7206119, “RIP1 inhibition blocks inflammatory diseases but not tumor growth or metastases” (Cell Death and Differentiation, 2019).

Targets include CAMK2B (Homo sapiens, UniProt Q13554); CSNK1G1 (Homo sapiens, UniProt Q9HCP0); TAOK1 (Homo sapiens, UniProt Q7L7X3); PDGFRB (Homo sapiens, UniProt P09619); CSNK1A1L (Homo sapiens, UniProt Q8N752); ROS1 (Homo sapiens, UniProt P08922); BMPR1B (Homo sapiens, UniProt O00238); EGFR(G719C) (Homo sapiens, UniProt P00533, G719C); FLT3 (Homo sapiens, UniProt P36888); CDK9 (Homo sapiens, UniProt P50750); NEK4 (Homo sapiens, UniProt P51957); DDR1 (Homo sapiens, UniProt Q08345); PIK3CG (Homo sapiens, UniProt P48736); TRPM6 (Homo sapiens, UniProt Q9BX84).

What all share (test): biochemical
Common to all, as to parameters: DiscoverX kinase panel, active-site competition binding (KINOMEscan type), percent of control at one concentration
What all share (conditions): competition binding, percent of control

Another assay concerns the target T1, MEK5 (Homo sapiens, UniProt Q13163).
T1 construct: gene MAP2K5

Assay [1] has as its target T2, ABL1(M351T)-phosphorylated (Homo sapiens, UniProt P00519, M351T).
T2 construct: phosphorylated

In the next assay the target is T3, MRCKA (Homo sapiens, UniProt Q5VT25).
T3 construct: gene CDC42BPA

For the next assay, the target named is T4, PKAC-alpha (Homo sapiens, UniProt P17612).
T4 construct: gene PRKACA

The target of a further assay is T5, YANK2 (Homo sapiens, UniProt Q9NY57).
T5 construct: gene STK32B

Assay [2] concerns the target T6, RSK2(Kin.Dom.2-C-terminal) (Homo sapiens, UniProt P51812).
T6 construct: gene RPS6KA3; Kin.Dom.2-C-terminal

Assay [3] deals with T7, RSK1(Kin.Dom.2-C-terminal) (Homo sapiens, UniProt Q15418).
T7 construct: gene RPS6KA1; Kin.Dom.2-C-terminal

Sequence of TAOK1 (Q7L7X3 whole entry): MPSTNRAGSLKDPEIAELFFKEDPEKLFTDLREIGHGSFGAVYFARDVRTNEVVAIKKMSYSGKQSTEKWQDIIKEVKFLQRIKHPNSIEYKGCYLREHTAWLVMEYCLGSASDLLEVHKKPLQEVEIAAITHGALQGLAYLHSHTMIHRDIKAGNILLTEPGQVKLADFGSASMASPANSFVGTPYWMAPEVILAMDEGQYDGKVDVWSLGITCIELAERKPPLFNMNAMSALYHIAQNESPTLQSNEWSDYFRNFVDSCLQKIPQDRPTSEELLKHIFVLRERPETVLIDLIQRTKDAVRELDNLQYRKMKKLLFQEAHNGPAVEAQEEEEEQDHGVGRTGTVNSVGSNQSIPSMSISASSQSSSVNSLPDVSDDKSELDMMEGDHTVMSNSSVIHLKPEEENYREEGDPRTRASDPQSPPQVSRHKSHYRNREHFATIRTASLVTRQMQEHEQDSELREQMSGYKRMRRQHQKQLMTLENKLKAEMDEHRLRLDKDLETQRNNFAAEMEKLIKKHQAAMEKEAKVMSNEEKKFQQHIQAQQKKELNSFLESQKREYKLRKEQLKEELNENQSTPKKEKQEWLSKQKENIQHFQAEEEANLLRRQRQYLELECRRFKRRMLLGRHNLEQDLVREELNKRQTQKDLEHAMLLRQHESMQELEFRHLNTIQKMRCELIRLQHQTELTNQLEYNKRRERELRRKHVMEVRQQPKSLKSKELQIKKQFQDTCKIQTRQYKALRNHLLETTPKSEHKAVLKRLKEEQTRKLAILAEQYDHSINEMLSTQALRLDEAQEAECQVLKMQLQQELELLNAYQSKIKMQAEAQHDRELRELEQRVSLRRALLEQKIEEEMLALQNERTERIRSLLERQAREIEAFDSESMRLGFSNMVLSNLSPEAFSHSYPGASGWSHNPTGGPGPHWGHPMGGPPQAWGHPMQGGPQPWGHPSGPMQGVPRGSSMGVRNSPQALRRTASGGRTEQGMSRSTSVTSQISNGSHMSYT
Sequence of CSNK1G1 (Q9HCP0 whole entry): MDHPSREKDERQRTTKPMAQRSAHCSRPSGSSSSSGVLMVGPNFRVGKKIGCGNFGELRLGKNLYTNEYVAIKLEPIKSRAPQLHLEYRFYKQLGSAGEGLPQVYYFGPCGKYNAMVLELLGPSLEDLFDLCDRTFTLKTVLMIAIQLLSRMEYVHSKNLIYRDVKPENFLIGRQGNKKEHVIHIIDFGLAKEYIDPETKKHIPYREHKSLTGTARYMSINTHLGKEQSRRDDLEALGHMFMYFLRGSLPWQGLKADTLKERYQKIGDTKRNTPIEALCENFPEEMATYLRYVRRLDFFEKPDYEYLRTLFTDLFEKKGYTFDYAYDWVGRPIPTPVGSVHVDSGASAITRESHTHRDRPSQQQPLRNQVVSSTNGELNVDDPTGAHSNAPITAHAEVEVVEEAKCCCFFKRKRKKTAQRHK
Sequence of ROS1 (P08922 whole entry): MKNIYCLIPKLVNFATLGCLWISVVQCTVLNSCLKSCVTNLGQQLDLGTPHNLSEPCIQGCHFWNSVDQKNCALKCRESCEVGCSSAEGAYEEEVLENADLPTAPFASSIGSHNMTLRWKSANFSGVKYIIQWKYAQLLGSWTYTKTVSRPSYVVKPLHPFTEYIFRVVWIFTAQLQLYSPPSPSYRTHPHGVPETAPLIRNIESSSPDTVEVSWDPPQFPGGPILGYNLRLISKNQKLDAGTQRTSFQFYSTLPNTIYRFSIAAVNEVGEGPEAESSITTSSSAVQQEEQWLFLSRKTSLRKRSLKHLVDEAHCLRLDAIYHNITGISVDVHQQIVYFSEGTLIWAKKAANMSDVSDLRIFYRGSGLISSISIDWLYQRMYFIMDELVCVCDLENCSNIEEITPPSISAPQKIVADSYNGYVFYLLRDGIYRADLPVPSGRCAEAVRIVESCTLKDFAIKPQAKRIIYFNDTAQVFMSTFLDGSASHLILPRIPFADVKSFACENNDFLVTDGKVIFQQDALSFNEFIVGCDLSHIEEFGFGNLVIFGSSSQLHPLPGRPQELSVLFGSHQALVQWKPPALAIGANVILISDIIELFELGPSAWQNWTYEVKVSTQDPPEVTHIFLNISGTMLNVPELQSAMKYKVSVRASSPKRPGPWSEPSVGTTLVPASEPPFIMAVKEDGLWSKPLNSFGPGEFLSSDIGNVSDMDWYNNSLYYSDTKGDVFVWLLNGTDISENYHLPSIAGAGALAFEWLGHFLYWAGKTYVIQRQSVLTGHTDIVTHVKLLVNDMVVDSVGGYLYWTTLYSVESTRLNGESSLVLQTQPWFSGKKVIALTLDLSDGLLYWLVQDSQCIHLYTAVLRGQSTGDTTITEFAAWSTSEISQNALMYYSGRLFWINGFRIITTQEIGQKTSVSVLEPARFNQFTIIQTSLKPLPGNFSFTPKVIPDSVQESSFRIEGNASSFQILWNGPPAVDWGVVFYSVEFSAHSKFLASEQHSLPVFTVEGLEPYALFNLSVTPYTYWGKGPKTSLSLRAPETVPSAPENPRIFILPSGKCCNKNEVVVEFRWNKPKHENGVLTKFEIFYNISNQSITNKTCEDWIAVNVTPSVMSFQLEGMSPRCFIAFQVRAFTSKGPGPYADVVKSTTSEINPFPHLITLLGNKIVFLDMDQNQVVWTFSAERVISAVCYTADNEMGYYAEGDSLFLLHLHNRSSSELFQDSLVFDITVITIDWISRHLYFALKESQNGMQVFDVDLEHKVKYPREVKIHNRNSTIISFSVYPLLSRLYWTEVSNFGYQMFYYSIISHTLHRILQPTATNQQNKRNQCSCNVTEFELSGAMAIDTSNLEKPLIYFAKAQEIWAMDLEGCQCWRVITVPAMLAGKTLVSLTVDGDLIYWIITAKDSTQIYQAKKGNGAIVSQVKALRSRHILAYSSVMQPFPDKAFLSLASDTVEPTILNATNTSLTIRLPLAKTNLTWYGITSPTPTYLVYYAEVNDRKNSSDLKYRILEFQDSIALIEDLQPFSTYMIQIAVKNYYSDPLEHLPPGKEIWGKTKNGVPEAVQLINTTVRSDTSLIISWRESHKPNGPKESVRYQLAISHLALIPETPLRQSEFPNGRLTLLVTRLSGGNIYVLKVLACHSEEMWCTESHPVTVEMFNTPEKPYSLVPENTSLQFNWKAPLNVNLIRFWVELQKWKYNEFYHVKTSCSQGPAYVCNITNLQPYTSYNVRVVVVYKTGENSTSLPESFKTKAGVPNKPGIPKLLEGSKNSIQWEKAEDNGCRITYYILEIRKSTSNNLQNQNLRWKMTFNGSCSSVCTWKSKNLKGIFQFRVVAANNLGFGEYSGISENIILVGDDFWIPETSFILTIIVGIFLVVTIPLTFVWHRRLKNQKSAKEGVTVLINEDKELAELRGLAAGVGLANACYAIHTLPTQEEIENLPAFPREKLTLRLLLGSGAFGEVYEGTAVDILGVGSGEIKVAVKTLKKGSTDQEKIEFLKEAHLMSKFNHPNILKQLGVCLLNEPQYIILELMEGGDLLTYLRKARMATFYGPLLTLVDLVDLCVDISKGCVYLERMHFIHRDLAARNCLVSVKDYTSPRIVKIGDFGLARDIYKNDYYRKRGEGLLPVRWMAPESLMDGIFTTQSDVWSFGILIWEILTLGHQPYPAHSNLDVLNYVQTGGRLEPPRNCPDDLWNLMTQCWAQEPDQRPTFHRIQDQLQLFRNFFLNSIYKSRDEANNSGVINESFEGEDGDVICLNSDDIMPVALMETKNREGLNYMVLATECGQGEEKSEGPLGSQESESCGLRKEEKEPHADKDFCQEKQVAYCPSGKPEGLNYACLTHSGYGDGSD
Sequence of EGFR(G719C) (P00533 whole entry G719C): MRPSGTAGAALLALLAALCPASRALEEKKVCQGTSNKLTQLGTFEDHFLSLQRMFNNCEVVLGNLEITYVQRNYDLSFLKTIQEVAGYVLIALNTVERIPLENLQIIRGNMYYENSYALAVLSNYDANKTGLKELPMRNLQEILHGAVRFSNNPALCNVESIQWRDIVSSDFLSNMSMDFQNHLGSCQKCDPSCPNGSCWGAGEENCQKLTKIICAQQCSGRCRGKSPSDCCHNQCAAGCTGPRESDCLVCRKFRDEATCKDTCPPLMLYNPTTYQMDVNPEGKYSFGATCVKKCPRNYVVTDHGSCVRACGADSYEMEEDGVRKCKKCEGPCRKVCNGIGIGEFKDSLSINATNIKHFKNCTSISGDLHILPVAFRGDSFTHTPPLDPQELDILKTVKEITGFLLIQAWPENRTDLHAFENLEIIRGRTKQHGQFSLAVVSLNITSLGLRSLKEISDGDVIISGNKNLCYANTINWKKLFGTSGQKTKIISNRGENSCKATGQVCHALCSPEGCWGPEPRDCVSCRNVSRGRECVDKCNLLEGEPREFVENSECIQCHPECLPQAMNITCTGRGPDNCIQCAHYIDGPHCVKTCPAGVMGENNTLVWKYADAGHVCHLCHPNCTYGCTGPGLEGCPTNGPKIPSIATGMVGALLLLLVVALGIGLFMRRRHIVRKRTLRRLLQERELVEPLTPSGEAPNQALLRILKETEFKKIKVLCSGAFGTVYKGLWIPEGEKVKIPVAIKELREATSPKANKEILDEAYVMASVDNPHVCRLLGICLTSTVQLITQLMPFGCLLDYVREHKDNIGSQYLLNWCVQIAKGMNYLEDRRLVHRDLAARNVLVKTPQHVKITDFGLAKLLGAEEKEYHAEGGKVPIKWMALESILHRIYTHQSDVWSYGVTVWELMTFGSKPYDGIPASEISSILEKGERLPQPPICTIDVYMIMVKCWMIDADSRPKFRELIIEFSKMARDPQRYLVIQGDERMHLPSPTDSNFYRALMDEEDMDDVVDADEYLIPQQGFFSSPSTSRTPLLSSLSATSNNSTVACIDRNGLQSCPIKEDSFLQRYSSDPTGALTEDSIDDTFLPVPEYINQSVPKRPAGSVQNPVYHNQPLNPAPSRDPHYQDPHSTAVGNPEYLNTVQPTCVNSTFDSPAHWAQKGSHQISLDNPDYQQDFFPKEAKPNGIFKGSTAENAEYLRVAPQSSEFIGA

With `COc1cc2c(cn1)N(C)C(=O)[C@@H](NC(=O)c1nc3n(n1)[C@H](c1ccccc1)CC3)CC2` [GNE684, (S)-N-((S)-7-methoxy-1-methyl-2-oxo-2,3,4,5-tetrahydro-1H-pyrido[3,4-b]azepin-3-yl)-5-phenyl-6,7-dihydro-5H-pyrrolo[1,2-b][1,2,4]triazole-2-carboxamide], the remaining binding at 10 µM at MEK5 is 80%; at CAMK2B it was 76%; in assay [1], 100%; at CSNK1G1, 91%; at TAOK1, 100%; on PDGFRB, 94%. Moreover, the remaining binding at 10 µM on MRCKA worked out at 100%; at PKAC-alpha it was 73%; at CSNK1A1L it was 100%; at ROS1, 96%; at YANK2, 84%; in assay [2], 85%. For the same molecule, the remaining binding at 10 µM amounted to 100% at BMPR1B; 87% on EGFR(G719C); 87% at FLT3; 97% at CDK9; 100% at NEK4; 100% in assay [3]. The remaining binding at 10 µM at DDR1 was found to be 100%; on PIK3CG it was 89%; on TRPM6, 87%.
